Assay results published in patent US9682965B2, “Fumagillol heterocyclic compounds and methods of making and using same” (Zafgen, Inc., priority 2015, dated 2017).
Counter-ions that a name gives are not always drawn. Like-named read-outs stand apart in the source and are kept apart here.

Key:
[1] = system: Diet Induced Obese (DIO) C57BL/6 mice; test: 10 day DIO mouse model (body weight, food intake, hematology, blood chemistry); format: in vivo; conditions: 240 h, DIO mouse, once a day for 10 days, read-out: DIO Mouse 10-day weight loss vs vehicle; for inhibition in vivo at 0.3 mg/kg: 0.3 mpk sc
Method in brief: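 DIO C57BL/6 mice on 60% kcal fat diet received compounds subcutaneously once daily for 10 days at 1.0, 0.5, 0.3, 0.1 or 0.03 mpk, in 10% DMSO in water, after 3-day vehicle acclimation. Body weight and food intake were recorded daily. Hematology and blood chemistry were taken on Day 11, 24 h post-final dose.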

recombinant human MetAP2 = recombinant human MetAP2 (Homo sapiens (Human), UniProt P50579); test: recombinant human MetAP2 enzyme inhibition assay; format: biochemical
Chain of recombinant human MetAP2 (P50579 whole entry): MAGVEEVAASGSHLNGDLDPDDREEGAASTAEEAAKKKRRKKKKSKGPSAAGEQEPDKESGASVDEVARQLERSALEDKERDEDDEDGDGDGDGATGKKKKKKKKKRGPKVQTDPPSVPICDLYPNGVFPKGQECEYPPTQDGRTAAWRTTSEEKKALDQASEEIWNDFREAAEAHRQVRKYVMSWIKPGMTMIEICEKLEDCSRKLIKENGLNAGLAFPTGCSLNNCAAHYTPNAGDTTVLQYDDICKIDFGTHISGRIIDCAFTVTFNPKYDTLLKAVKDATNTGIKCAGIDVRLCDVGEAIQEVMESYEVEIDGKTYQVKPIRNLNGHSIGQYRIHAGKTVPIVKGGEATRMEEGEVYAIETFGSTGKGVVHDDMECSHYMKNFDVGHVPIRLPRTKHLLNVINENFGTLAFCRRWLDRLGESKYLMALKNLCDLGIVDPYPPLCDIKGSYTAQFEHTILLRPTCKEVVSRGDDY
Description: Compounds are tested for their capacity to inhibit recombinant human MetAP2 activity using the following assay.
Flag tagged Human recombinant MetAP2 expressed and isolated for use as the enzyme source. 10 mM stock solutions of compounds were prepared in 100% DMSO and further diluted in 100% DMSO required concentration to 1 mM stocks. The stock compound solutions and DMSO vehicle controls were diluted to target final compound concentrations using assay buffer to a final concentration of 50 mM HEPES containing 100 mM NaCl, pH adjusted to 7.5. The MAS peptide was formulated to a 7.5 mM stock in distilled water and prior to use further diluted 1:4. […] 40 μl of enzyme was mixed with 100 μl of MnCl2 then further diluted in assay buffer to a final concentration of 16 μg/ml. To test for compound effect on MetAP2 enzyme activity, 5 μl of test compound, 10 μl of MAS substrate/amino acid oxidase mixture, 10 μl of MetAP2 was added to test wells in a 384 well black plate with blank wells containing no enzyme, replaced with 10 μl of assay buffer. All compounds were tested in duplicate on two occasions on the same day.
The plate was sealed with a TopSeal A cover and mixed briefly on an orbital mixer at 900 rpm. The plate was incubated for a further 25 minutes at 25° C. A 5× stock of Amplex buffer was prepared (0.25M sodium phosphate, pH 7.4) and stored at 4° C. […] 25 μl detection reagent was added to each well of the test plate, which was re-sealed and mixed briefly on an orbital shaker.

[2] = recombinant human MetAP2, MAS peptide substrate, 25 minutes at 25° C

| IC50 (recombinant human MetAP2; [2]) [nM] | Compound | inhibition in vivo at 0.3 mg/kg [1] [%] | inhibition in vivo at 1 mg/kg ([1]; 1.0 mpk sc) [%] | inhibition in vivo at 0.3 mg/kg ([1]; Mus musculus, sc) [%] | IC50 (recombinant human MetAP2) [nM] |
| --- | --- | --- | --- | --- | --- |
| < 50 | CO[C@@H]1[C@H](OC(=O)N2CC(OC(N)=O)C2)CC[C@]2(CO2)[C@H]1[C@@]1(C)O[C@@H]1CC=C(C)C [Example 72, (3R,4S,5S,6R)-5-methoxy-4-((2R,3R)-2-methyl-3-(3-methylbut-2-enyl)oxiran-2-yl)-1-oxaspiro[2.5]octan-6-yl 3-(carbamoyloxy)azetidine-1-carboxylate] | 0.8 | – | – | – |
| < 50 | CCNC[C@@H]1CCN1C(=O)O[C@@H]1CC[C@]2(CO2)[C@@H]([C@@]2(C)O[C@@H]2CC=C(C)C)[C@@H]1OC [Example 122, (S)-((3R,4S,5S,6R)-5-methoxy-4-((2R,3R)-2-methyl-3-(3-methylbut-2-enyl)oxiran-2-yl)-1-oxaspiro[2.5]octan-6-yl) 2-((ethylamino)methyl)azetidine-1-carboxylate] | 3.2 | – | – | – |
| < 50 | CNC(=O)CC1CN(C(=O)O[C@@H]2CC[C@]3(CO3)[C@@H]([C@@]3(C)O[C@@H]3CC=C(C)C)[C@@H]2OC)C1 [Example 63, (3R,4S,5S,6R)-5-methoxy-4-((2R,3R)-2-methyl-3-(3-methylbut-2-enyl)oxiran-2-yl)-1-oxaspiro[2.5]octan-6-yl 3-(2-(methylamino)-2-oxoethyl)azetidine-1-carboxylate] | 0.5 | – | – | – |
| < 50 | CCN(CC)CCC1CCN(C(=O)O[C@@H]2CC[C@]3(CO3)[C@@H]([C@@]3(C)O[C@@H]3CC=C(C)C)[C@@H]2OC)C1 (stereo in doubt) [Example 56, (S)-(3R,4S,5S,6R)-5-methoxy-4-((2R,3R)-2-methyl-3-(3-methylbut-2-en-1-yl)oxiran-2-yl)-1-oxaspiro[2.5]octan-6-yl 3-(2-(diethylamino)ethyl)pyrrolidine-1-carboxylate] | 7.2 | – | – | – |
| < 50 | CO[C@@H]1[C@H](OC(=O)N2CC(CCN3CC4(COC4)C3)C2)CC[C@]2(CO2)[C@H]1[C@@]1(C)O[C@@H]1CC=C(C)C [Example 16, (3R,4S,5S,6R)-5-methoxy-4-((2R,3R)-2-methyl-3-(3-methylbut-2-en-1-yl)oxiran-2-yl)-1-oxaspiro[2.5]octan-6-yl 3-(2-(2-oxa-6-azaspiro[3.3]heptan-6-yl)ethyl)azetidine-1-carboxylate] | 3.1 | – | – | – |
| < 50 | CCN(CC)CCC1(O)CN(C(=O)O[C@@H]2CC[C@]3(CO3)[C@@H]([C@@]3(C)O[C@@H]3CC=C(C)C)[C@@H]2OC)C1 [Example 49, (3R,4S,5S,6R)-5-methoxy-4-((2R,3R)-2-methyl-3-(3-methylbut-2-enyl)oxiran-2-yl)-1-oxaspiro[2.5]octan-6-yl 3-(2-(diethylamino)ethyl)-3-hydroxyazetidine-1-carboxylate] | 4.1 | – | – | – |
| < 50 | CNC(=O)NC1CN(C(=O)O[C@@H]2CC[C@]3(CO3)[C@@H]([C@@]3(C)O[C@@H]3CC=C(C)C)[C@@H]2OC)C1 [Example 84, (3R,4S,5S,6R)-5-methoxy-4-((2R,3R)-2-methyl-3-(3-methylbut-2-enyl)oxiran-2-yl)-1-oxaspiro[2.5]octan-6-yl 3-(3-methylureido)azetidine-1-carboxylate] | 0.8 | – | – | – |
| < 50 | CCN(CC)CCNC(=O)CC1CN(C(=O)O[C@@H]2CC[C@]3(CO3)[C@@H]([C@@]3(C)O[C@@H]3CC=C(C)C)[C@@H]2OC)C1 [Example 66, (3R,4S,5S,6R)-5-methoxy-4-((2R,3R)-2-methyl-3-(3-methylbut-2-enyl)oxiran-2-yl)-1-oxaspiro[2.5]octan-6-yl 3-(2-(2-(diethylamino)ethylamino)-2-oxoethyl)azetidine-1-carboxylate] | 7.6 | – | – | – |
| < 50 | CCN(CC)CCCC1(O)CN(C(=O)O[C@@H]2CC[C@]3(CO3)[C@@H]([C@@]3(C)O[C@@H]3CC=C(C)C)[C@@H]2OC)C1 [Example 61, (3R,4S,5S,6R)-5-methoxy-4-((2R,3R)-2-methyl-3-(3-methylbut-2-enyl)oxiran-2-yl)-1-oxaspiro[2.5]octan-6-yl 3-(3-(diethylamino)propyl)-3-hydroxyazetidine-1-carboxylate] | – | – | – | – |
| < 50 | CO[C@@H]1[C@H](OC(=O)N2CC(CCN3CCCCC3)C2)CC[C@]2(CO2)[C@H]1[C@@]1(C)O[C@@H]1CC=C(C)C [Example 4, (3R,4S,5S,6R)-5-methoxy-4-((2R,3R)-2-methyl-3-(3-methylbut-2-enyl)oxiran-2-yl)-1-oxaspiro[2.5]octan-6-yl 3-(2-(piperidin-1-yl)ethyl)azetidine-1-carboxylate formate] | 4.1 | – | – | – |

More lines, now with the values behind:

| Compound | IC50 (recombinant human MetAP2; [2]) [nM] | inhibition in vivo at 0.3 mg/kg [1] [%] | inhibition in vivo at 1 mg/kg ([1]; 1.0 mpk sc) [%] | inhibition in vivo at 0.3 mg/kg ([1]; Mus musculus, sc) [%] | IC50 (recombinant human MetAP2) [nM] |
| --- | --- | --- | --- | --- | --- |
| CO[C@@H]1[C@H](OC(=O)N2CC(CCN3CCC(C)(O)CC3)C2)CC[C@]2(CO2)[C@H]1[C@@]1(C)O[C@@H]1CC=C(C)C [Example 8, (3R,4S,5S,6R)-5-methoxy-4-((2R,3R)-2-methyl-3-(3-methylbut-2-enyl)oxiran-2-yl)-1-oxaspiro[2.5]octan-6-yl 3-(2-(4-hydroxy-4-methylpiperidin-1-yl)ethyl)azetidine-1-carboxylate] | < 50 | 4.9 | 17.3 | – | – |
| CCN(CC)CCNC(=O)OC1CN(C(=O)O[C@@H]2CC[C@]3(CO3)[C@@H]([C@@]3(C)O[C@@H]3CC=C(C)C)[C@@H]2OC)C1 [Example 73, (3R,4S,5S,6R)-5-methoxy-4-((2R,3R)-2-methyl-3-(3-methylbut-2-en-1-yl)oxiran-2-yl)-1-oxaspiro[2.5]octan-6-yl 3-(((2-(diethylamino)ethyl)carbamoyl)oxy)azetidine-1-carboxylate] | < 50 | 7.4 | – | – | – |
| CO[C@@H]1[C@H](OC(=O)N2CC(CC(=O)N3CCOCC3)C2)CC[C@]2(CO2)[C@H]1[C@@]1(C)O[C@@H]1CC=C(C)C [Example 62, (3R,4S,5S,6R)-5-methoxy-4-((2R,3R)-2-methyl-3-(3-methylbut-2-enyl)oxiran-2-yl)-1-oxaspiro[2.5]octan-6-yl 3-(2-morpholino-2-oxoethyl)azetidine-1-carboxylate formate] | < 50 | 7.4 | – | – | – |
| CO[C@@H]1[C@H](OC(=O)N2CC(CCN3CCC(O)CC3)C2)CC[C@]2(CO2)[C@H]1[C@@]1(C)O[C@@H]1CC=C(C)C [Example 7, (3R,4S,5S,6R)-5-methoxy-4-((2R,3R)-2-methyl-3-(3-methylbut-2-en-1-yl)oxiran-2-yl)-1-oxaspiro[2.5]octan-6-yl 3-(2-(4-hydroxypiperidin-1-yl)ethyl)azetidine-1-carboxylate] | < 50 | – | – | 1.8 | – |
| CO[C@@H]1[C@H](OC(=O)N2CC(CCN3CCC3)C2)CC[C@]2(CO2)[C@H]1[C@@]1(C)O[C@@H]1CC=C(C)C [Example 5, (3R,4S,5S,6R)-5-methoxy-4-((2R,3R)-2-methyl-3-(3-methylbut-2-en-1-yl)oxiran-2-yl)-1-oxaspiro[2.5]octan-6-yl 3-(2-(azetidin-1-yl)ethyl)azetidine-1-carboxylate] | < 50 | 4.3 | – | – | – |
| CO[C@@H]1[C@H](OC(=O)N2CC(CC(N)=O)C2)CC[C@]2(CO2)[C@H]1[C@@]1(C)O[C@@H]1CC=C(C)C [Example 65, (3R,4S,5S,6R)-5-methoxy-4-((2R,3R)-2-methyl-3-(3-methylbut-2-enyl)oxiran-2-yl)-1-oxaspiro[2.5]octan-6-yl 3-(2-amino-2-oxoethyl)azetidine-1-carboxylate] | < 50 | 2.6 | – | – | – |
| CCNCCCC1CN(C(=O)O[C@@H]2CC[C@]3(CO3)[C@@H]([C@@]3(C)O[C@@H]3CC=C(C)C)[C@@H]2OC)C1 [Example 124, (3R,4S,5S,6R)-5-methoxy-4-((2R,3R)-2-methyl-3-(3-methylbut-2-enyl)oxiran-2-yl)-1-oxaspiro[2.5]octan-6-yl 3-(3-(ethylamino)propyl)azetidine-1-carboxylate formate] | – | 4.9 | – | – | < 50 |
